These are literature values, as cited in patent publication US6703001B1, “Cosmetic and dermatological light-protective formulations containing triazine derivatives one or several esters of branched-chain carboxylic acids and branched-chain alcohols” (Beiersdorf AG, priority 1998, dated 2004).

Regarding `CCCCC(CC)COC(=O)c1ccc(Nc2nc(Nc3ccc(C(=O)OCC(CC)CCCC)cc3)nc(Nc3ccc(C(=O)OCC(CC)CCCC)cc3)n2)cc1` (stereo not drawn) [UVINUL7 T 150, tris(2-ethylhexyl) 4,4′,4″-(1,3,5-triazine-2,4,6-triyltriimino)trisbenzoate], under “corresponds to the about 15% by weight solubility in known solvents”, the “corresponding dissolved, and therefore active, UV filter substance” value is listed as 1-1.5 % by weight. Moreover, the “maximum amount of the filter that known solvents can dissolve” value (known solvents for this UVB filter (lipids)) is on record as “about 15 % by weight”. Further, the “solubility in lipids (in words)” value (lipids) was “poor solubility in lipids”.
